# Reference: patent publication US20240024295A1, “COMPOSITIONS AND METHODS FOR INHIBITING HAIR GROWTH” (priority 2020, published 2024)
# System: C3H mice
# Test: Telogen Conversion Assay
# Format: in vivo
# Settings: for Average Grades, 23 Days: average of 7 mice after 23 days; for hair regrowth as compared to the control group (placebo): applied daily to mice, at the appropriate dose-level, week 3 and week 4, FIGURE; for effect on hair growth (average grade): average grade of 7 mice after 23 days, example written in present tense
# Method: FP receptor antagonists are tested for their potential to grow hair using the Telogen Conversion Assay. The Telogen Conversion Assay measures the potential of a FP receptor antagonist to inhibit in mice the conversion of hair in the resting stage of the hair growth cycle (“telogen”), to the growth stage of the hair growth cycle (“anagen”), and to assess the rate of anagen growth.
# Without intending to be limited by theory, there are three principal phases of the hair growth cycle: anagen, catagen, and telogen. It is believed that there is a long telogen period in C3H mice (Harian Sprague Dawley, Inc., Indianapolis, IN) from approximately 40 days of age until about 75 days of age, when hair growth is synchronized. It is believed that after 75 days of age, hair growth is no longer synchronized. Wherein about 40 day-old mice with dark fur (brown or black) are used in hair growth experiments, melanogenesis occurs along with hair (fur) growth wherein the topical application of hair growth inducers is evaluated. The Telogen Conversion Assay herein is used to screen FP receptor antagonists for potential hair growth by measuring melanogenesis and/or inhibition of expected hair growth.
# Three groups of 44 day-old C3H mice are used: a vehicle control group, a positive control group, and a test FP receptor antagonist group, wherein the test FP receptor antagonist group is administered a FP receptor antagonist. The length of the assay is typically 24 days with 15 treatment days (wherein the treatment days occur Mondays through Fridays). Day 1 is the first day of treatment. Typical dosage concentrations are set forth in Table 1, however the skilled artisan will readily understand that such concentrations may be modified.
# The mice are treated topically Monday through Friday on their lower back (base of tail to the lower rib). A pipette and tip are used to deliver 400 μL to each mouse's back. The 400 μL application is applied slowly while moving hair on the mouse to allow the application to reach the skin.
# While each treatment is being applied to the mouse topically, a visual grade of from 0 to 4 will be given to the skin color in the application area of each animal. As a mouse converts from telogen to anagen, its skin color will become less pink and more bluish-black.
# [1] = visual skin/hair grade 0 (pink skin) to 4 (full anagen), topical
Molecule,"Average Grades, 23 Days [1]","Average Grades, 25 Days (visual skin/hair grade 0 (pink skin) to 4 (full anagen), average of 7 mice after 25 days, topical)","Average Grades, 26 Days (visual skin/hair grade 0 (pink skin) to 4 (full anagen), average of 7 mice after 26 days, topical)",hair regrowth as compared to the control group (placebo),effect on hair growth (average grade)
O=C(O)CCC/C=C\CC1C(/C=C/[C@H](O)C2Cc3ccccc3C2)[C@@H](F)C[C@@H]1O (stereo partly drawn) [Example 1],0.4,0.1,0.7,–,–
COC(=O)CCC/C=C\CC1C(/C=C/[C@H](O)C2Cc3ccccc3C2)[C@@H](F)C[C@@H]1O (stereo partly drawn) [Example 2],0.1,–,–,inhibited hair regrowth,–
O=C(N[C@H](c1ccccc1)c1ccccn1)[C@@H]1SCCN1S(=O)(=O)c1ccc(-c2ccccc2)cc1 [Example 3],–,–,–,inhibited hair regrowth,significantly reduces hair growth
CC(C)OC(=O)CCC/C=C\CC1C(/C=C/[C@H](O)C2Cc3ccccc3C2)[C@@H](F)C[C@@H]1O (stereo partly drawn) [Example 4],–,–,–,–,significantly reduces hair growth
Ile-Leu-Gly-His-(citrulline)-Asp-Tyr-Lys [Example 5],–,–,–,–,significantly reduces hair growth
